Consider 9 compounds from US9346786B2, “Pyrrolidine compounds” (Hoffmann-La Roche Inc., priority 2009, dated 2016).

The conditions of assay [1]: phase II trial; cited from earlier work.
In assay [2] the target is recombinant human NK3 receptor (Homo sapiens (Human), UniProt P29371). The assay can be described thus: biochemical. Format: binding.
Setting [3] is: read-out: Data Ki (hNK-3 receptor affinity).
Where [4] appears, read: [3H]SR142801, membranes of HEK293 cells transiently expressing recombinant human NK3 receptor, read-out: Data Ki (hNK-3 receptor affinity).

The structures appear in SMILES notation. Like-named read-outs stand apart in the source and are kept apart here.

Chain of recombinant human NK3 receptor (P29371 whole entry): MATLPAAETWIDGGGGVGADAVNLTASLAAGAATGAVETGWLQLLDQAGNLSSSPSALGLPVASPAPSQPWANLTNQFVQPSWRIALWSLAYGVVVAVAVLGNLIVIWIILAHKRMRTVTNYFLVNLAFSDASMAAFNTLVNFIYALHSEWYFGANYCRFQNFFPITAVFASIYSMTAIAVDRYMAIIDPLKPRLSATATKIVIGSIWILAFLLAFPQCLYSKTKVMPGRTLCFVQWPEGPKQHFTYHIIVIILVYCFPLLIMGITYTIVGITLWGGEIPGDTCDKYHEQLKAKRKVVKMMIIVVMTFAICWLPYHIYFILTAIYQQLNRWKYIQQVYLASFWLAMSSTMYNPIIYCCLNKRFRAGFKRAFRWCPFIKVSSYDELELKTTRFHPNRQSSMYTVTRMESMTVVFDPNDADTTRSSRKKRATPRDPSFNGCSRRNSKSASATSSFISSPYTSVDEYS

Take `CC(=O)N(C)C1(c2ccccc2)CCN(CCC[C@]2(c3ccc(Cl)c(Cl)c3)CCCN(C(=O)c3ccccc3)C2)CC1` [SR 142,801, Osanetant]: in assay [1], the “activity on negative symptoms of schizophrenia” value is “inactive in the treatment of negative symptoms” and the “activity on positive symptoms of schizophrenia” value was “active on positive symptoms of schizophrenia”. For `CCN(C(=O)Oc1ccc(F)cc1)[C@@H]1CN(C(=O)C2CCN(c3ccc(C(C)=O)cn3)CC2)C[C@H]1c1ccc(F)cc1` [Example 38, [(3S,4R)-1-(5′-Acetyl-3,4,5,6-tetrahydro-2H-[1,2′]bipyridinyl-4-carbonyl)-4-(4-fluoro-phenyl)-pyrrolidin-3-yl]-ethyl-carbamic acid 4-fluoro-phenyl ester], the inhibition constant Ki (in general, a measure of affinity in units of concentration, obtained from inhibition or displacement) in assay [2] (setting [3]) came out at 7 nM.

Turning to `CCN(C(=O)Oc1ccc(F)cc1)[C@@H]1CN(C(=O)C2CCN(C(=O)C3(C)CC3)CC2)C[C@H]1c1ccc(Cl)c(Cl)c1` (racemic) [Example 1, rac-{(3S,4R)-4-(3,4-Dichloro-phenyl)-1-[1-(1-methyl-cyclopropanecarbonyl)-piperidine-4-carbonyl]-pyrrolidin-3-yl}-ethyl-carbamic acid 4-fluoro-phenyl ester], the Ki in assay [2] is 1 nM. In the case of `CCN(C(=O)Oc1ccc(F)cc1)[C@@H]1CN(C(=O)C2CCN(C(=O)C3CCC3)CC2)C[C@H]1c1ccc(Cl)cc1` [Example 87, [(3S,4R)-4-(4-Chloro-phenyl)-1-(1-cyclobutanecarbonyl-piperidine-4-carbonyl)-pyrrolidin-3-yl]-ethyl-carbamic acid 4-fluoro-phenyl ester], the Ki in assay [2] (setting [4]) is 2.1 nM. On to `CCN(C(=O)Oc1ccc(F)cc1)[C@@H]1CN(C(=O)C2CCN(c3ccc(C(N)=O)cn3)CC2)C[C@H]1c1ccc(Cl)c(F)c1` [Example 109, [(3S,4R)-1-(5′-Carbamoyl-3,4,5,6-tetrahydro-2H-[1,2′]bipyridinyl-4-carbonyl)-4-(4-chloro-3-fluoro-phenyl)-pyrrolidin-3-yl]-ethyl-carbamic acid 4-fluoro-phenyl ester], for which, in assay [2], the Ki was 1.7 nM. Consider `CCN(C(=O)Oc1ccc(F)cc1)[C@H]1CN(C(=O)C2CCN(c3ncc(C#N)cn3)CC2)C[C@@H]1c1ccc(Cl)cc1` [Example 7, {(3R,4S)-4-(4-Chloro-phenyl)-1-[1-(5-cyano-pyrimidin-2-yl)-piperidine-4-carbonyl]-pyrrolidin-3-yl}-ethyl-carbamic acid 4-fluoro-phenyl ester], for which the Ki in assay [2] (setting [4]) worked out at 89 nM. Regarding `CCN(C(=O)Oc1ccc(F)cc1)[C@@H]1CN(C(=O)C2CCN(c3ccc(C(C)(C)O)cn3)CC2)C[C@H]1c1ccc(Cl)c(F)c1` [Example 83, {(3S,4R)-4-(4-Chloro-3-fluoro-phenyl)-1-[5′-(1-hydroxy-1-methyl-ethyl)-3,4,5,6-tetrahydro-2H-[1,2′]bipyridinyl-4-carbonyl]-pyrrolidin-3-yl}-ethyl-carbamic acid 4-fluoro-phenyl ester], the inhibition constant Ki in assay [2] (setting [4]) was found to be 3.8 nM. For `CCN(C(=O)Oc1ccc(F)cc1)[C@@H]1CN(C(=O)C2CCN(C(=O)C3CCC(=O)N(C(C)C)C3)CC2)C[C@H]1c1ccc(Cl)cc1` (stereo partly drawn) [Example 104, {(3S,4R)-4-(4-Chloro-phenyl)-1-[1-(1-isopropyl-6-oxo-piperidine-3-carbonyl)-piperidine-4-carbonyl]-pyrrolidin-3-yl}-ethyl-carbamic acid 4-fluoro-phenyl ester], the Ki in assay [2] (setting [3]) was 17.6 nM. Take `CCN(C(=O)Oc1ccc(F)cc1)[C@@H]1CN(C(=O)C2CCN(C(C)=O)CC2)C[C@H]1c1ccc(Cl)c(F)c1` [Example 80, [(3S,4R)-1-(1-Acetyl-piperidine-4-carbonyl)-4-(4-chloro-3-fluoro-phenyl)-pyrrolidin-3-yl]-ethyl-carbamic acid 4-fluoro-phenyl ester]: in assay [2] (setting [4]), the Ki is 2 nM.
